Holding throughout (format): in vivo, Sprague-Dawley rats
Assay [1] relates to middle cerebral artery occlusion (MCAO) stroke rats. Put plainly: Histological analysis of brain cell survival, chronic stroke, FIG. 2. The note with it: treatment 1 month after MCAO.
Experimental: The hUCBC (Saneron CCEL Therapeutics, Inc., Tampa, Fla.) were thawed at 37° C. Cells were washed and centrifuged three times (1000 rpm for 7 minutes). Viability was determined using the trypan blue dye exclusion method and cell concentration was adjusted to 10,000 cells/μl. A minimum of 85% viability post-thaw was required for a sample to be used for transplantation. For hUCBC+BBB, 200,000 hUCB cells were suspended in 10 μl PBS in a 28-gauge Hamilton syringe. For hUCBC only, 2×10^6 cells were suspended in XX μl PBS. The BBB only treatment was injected as prepared. Treatments were administered by intra-arterial injection into the internal carotid artery where the embolic filament was previously inserted. Infusion rate was 1 μl per minute as determined by using a micro-infusion pump.
The test system is the same in assay [2]. In words: Motor asymmetry, chronic stroke (treatment 1 month after MCAO), FIG. 1. The note with it: intra-arterial, hUCBC only 2 million cells, combination 200,000 cells + 1.1 mol/L mannitol. The protocol: (§1) Adult Sprague-Dawley rats initially received sham surgery or experimental stroke via the one-hour middle cerebral artery occlusion (MCAO) model, as disclosed in Example 2. At 1 month after the MCAO surgery, stroke animals were randomly assigned to receive human umbilical cord stem cells only (2 million viable cells), mannitol only (1.1 mol/L mannitol at 4° C.), combined human umbilical cord stem cells (200,000 viable cells) and mannitol (1.1 mol/L mannitol at 4° C.), and vehicle (phosphate buffered saline, PBS) only.
(§2) The hUCBC (Saneron CCEL Therapeutics, Inc., Tampa, Fla.) were thawed at 37° C. Cells were washed and centrifuged three times (1000 rpm for 7 minutes). Viability was determined using the trypan blue dye exclusion method and cell concentration was adjusted to 10,000 cells/μl. A minimum of 85% viability post-thaw was required for a sample to be used for transplantation. For hUCBC+BBB, 200,000 hUCB cells were suspended in 10 μl PBS in a 28-gauge Hamilton syringe. For hUCBC only, 2×10^6 cells were suspended in […] PBS. The BBB only treatment was injected as prepared. Treatments were administered by intra-arterial injection into the internal carotid artery where the embolic filament was previously inserted. Infusion rate was 1 μl per minute as determined by using a micro-infusion pump.

For assay [3] the test system is unchanged. Put plainly: Neurogenesis, chronic stroke, FIG. 7. The note with it: treatment 1 month after MCAO. The protocol:
as §1, §2

In the case of `OC[C@@H](O)[C@@H](O)[C@H](O)[C@H](O)CO` [mannitol], in assay [1], the “cell survival (brain damage, peri-infarct area)” value was “significant brain damage”. In addition, the motor asymmetry entry in assay [2] is reported as “lowered the motor asymmetry slightly”. Also, the “neurogenesis, increase above sham-operated rats” value in assay [3] is reported as “without concomitant neurogenesis”.

Values taken from patent US10765706B2, “Method of stem cell delivery into the brain during chronic disease using blood brain barrier permeabilizers” (University of South Florida, priority 2015, dated 2020).
